One experiment relates to blood glucose level. Kind of experiment: Hypoglycemic activity in hyperglycemic KK mice (blood glucose level). Format: in vivo, male mice of the KK strain. The conditions noted are these: 1 mg/kg oral, 18 hours, vs solvent-only group. On the procedure:
The test animals used were hyperglycemic male mice of the KK strain, each having a body weight of at least 40 g. The compounds under test were mixed with a 1:1 by volume mixture of polyethylene glycol 400 and water. Each animal was orally administered a test compound in the amount shown in the following Table 6 and then allowed to feed freely for 18 hours. At the end of this time, blood was collected from the tail veins without anesthesia. The blood glucose level (BGL) was determined by means of a glucose analyzer (GL-101, manufactured by Mitsubishi Kasei Co. or a Glucoroder-F manufactured by Shino Test Co.). The hypoglycemic effect was calculated by the following equation: Hypoglycemic effect (%)=[(BGLs -BGLt)/BGLs ]×100 where: BGLs is the blood glucose level in the group administered a solvent only, but no active compound; and BGLt is the blood glucose level in the group administered a test compound. The results are shown in the following Table 6, in which each compound of the present invention is identified by the number of one of the following Examples in which its preparation is illustrated.

Experiment [1] deals with T1, Bovine lens aldose reductase (Bos taurus, UniProt P16116).
T1 construct: Bovine lens aldose reductase was separated and partially purified; from tissue; host or cells: bovine lens
The experiment in a line: Inhibition of Aldose reductase. The conditions noted are these: for inhibition at 5 µg/mL: read-out: Inhibition (%) at 5 μg/ml. It counts as biochemical. The procedure:
Bovine lens aldose reductase was separated and partially purified by the method of S. Hyman and J. H. Kinoshita [J. Biol. Chem. 240, 877 (1965)] and K. Inagaki, I. Miwa and J. Okuda [Arch. Biochem. Biophys., 216, 337 (1982)], and its activity was determined photometrically by the method of Varma et al. [Biochem. Pharmac., 25, 2505 (1976)]. Inhibition of enzyme activity was measured for the compounds of the present invention at a concentration of 5 μg/ml, and the measured values were used to calculate the IC50 values.

pIC50: −log10 of the molar value.

With `COc1ccc2nc(COc3ccc(CC4SC(=O)NC4=O)cc3)n(C)c2c1` (centres unmarked) [Example 2, 5-[4-(6-Methoxy-1-methylbenzimidazol-2-ylmethoxy)benzyl]thiazolidine-2,4-dione], the “Hypoglycemic effect (%)” value in the experiment with blood glucose level turned out to be 27.2%.
On to `Cc1c(O)c(C)c2nc(COc3ccc(CC4SC(=O)NC4=O)cc3)n(C)c2c1C` (centres unmarked) [Example 3, 5-[4-(5-Hydroxy-1,4,6,7-tetramethylbenzimidazol-2-ylmethoxy)benzyl]thiazolidine-2,4-dione], for which, in experiment [1], the pIC50 (as a rule, the IC50 on a negative log10 scale, so that one unit is a factor of ten) is 5.48 and the inhibition at 5 µg/mL was 79.6%. Moreover, the “Hypoglycemic effect (%)” value with blood glucose level is recorded as 11.2%.
On to `Cc1c(O)c(C)c2nc(COc3ccc(CC4SC(=O)NC4=O)cc3)n(C)c2c1C.Cl` (centres unmarked) [Example 4, 5-[4-(5-Hydroxy-1,4,6,7-tetramethylbenzimidazol-2-ylmethoxy)benzyl]thiazolidine-2,4-dione hydrochloride], for which the “Hypoglycemic effect (%)” value with blood glucose level came out at 19.3%.
Consider `Cn1c(COc2ccc(CC3SC(=O)NC3=O)cc2)nc2ccccc21` (centres unmarked) [Example 1, 5-[4-(1-Methylbenzimidazol-2-ylmethoxy)benzyl]thiazolidine-2,4-dione], for which, in experiment [1], the pIC50 was 5.68 and the inhibition at 5 µg/mL is 80.3%. The “Hypoglycemic effect (%)” value in the experiment with blood glucose level is listed as 36.2%.

For the origin of these results see patent US5886014A, “Benzimidazole derivatives, their preparation and their therapeutic use” (Sankyo Company, Limited, priority 1995, dated 1999).
